In the supplement of paper PMC11061612:

Columns and labels:
[1] = system: JHH-6 (Hepatocellular Carcinoma); assay: combination Emax (second highest fraction inhibited in the dose matrix, 72 h); higher = more inhibition; extreme values may be limits of the assay
In short: (§1)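 Cell lines grown in DMEM/F12 or RPMI with 10% FBS were plated in 1536-well plates and held 24 hours at 37°C, 5% CO2 before 72 hours of exposure to two-drug dose matrices, with DMSO typically at 0.2%. CellTiter-Glo 2.0 luminescence gave viability, which was converted to inhibition. Vehicle wells were set to 0 and blank wells to 1. Combination Emax is the second-highest inhibition in the matrix, and Bliss excess is the observed combination effect minus the expected EA + EB − EA·EB, where EA and EB are the single-agent effects.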

HuO9 (Osteosarcoma) [2] = assay: as above
In short: as §1

[3] = system: SKN-3 (Head and Neck Carcinoma); assay: as above
In short: as §1

MCF7 (Breast Carcinoma) [4] = assay: as above
In short: as §1

[5] = system: GDM-1 (Acute Myeloid Leukemia); assay: as above
In short: as §1

[6] = system: MES-SA (Other Solid Carcinomas); assay: as above
In short: as §1

[7] = system: EFM-192A (Breast Carcinoma); assay: as above
In short: as §1

[8] = system: HOP-92 (Non-Small Cell Lung Carcinoma); assay: as above
In short: as §1

[9] = system: ETK-1 (Biliary Tract Carcinoma); assay: as above
In short: as §1

[10] = system: HCC-827 (Lung Adenocarcinoma); assay: as above
In short: as §1

[11] = system: KG-1 (Acute Myeloid Leukemia); assay: as above
In short: as §1

[12] = system: SNU-61 (Colorectal Carcinoma); assay: as above
In short: as §1

[13] = system: RCC10RGB (Kidney Carcinoma); assay: as above
In short: as §1

[14] = system: PA-TU-8902 (Pancreatic Carcinoma); assay: as above
In short: as §1

A172 (Glioblastoma) [15] = assay: as above
In short: as §1

[16] = system: U-118-MG (Low Grade Glioma); assay: as above
In short: as §1

[17] = system: TYK-nu (Ovarian Carcinoma); assay: as above
In short: as §1

[18] = system: NCI-H1688 (Small Cell Lung Carcinoma); assay: as above
In short: as §1

[19] = system: HCC1143 (Breast Carcinoma); assay: as above
In short: as §1

[20] = system: 647-V (Bladder Carcinoma); assay: as above
In short: as §1

[21] = system: JHH-6 (Hepatocellular Carcinoma); assay: Bliss excess, mean over the matrix (fraction); higher = more synergy
In short: as §1

HuO9 (Osteosarcoma) [22] = assay: as above
In short: as §1

[23] = system: SKN-3 (Head and Neck Carcinoma); assay: as above
In short: as §1

MCF7 (Breast Carcinoma) [24] = assay: as above
In short: as §1

[25] = system: GDM-1 (Acute Myeloid Leukemia); assay: as above
In short: as §1

[26] = system: MES-SA (Other Solid Carcinomas); assay: as above
In short: as §1

[27] = system: EFM-192A (Breast Carcinoma); assay: as above
In short: as §1

[28] = system: HOP-92 (Non-Small Cell Lung Carcinoma); assay: as above
In short: as §1

[29] = system: ETK-1 (Biliary Tract Carcinoma); assay: as above
In short: as §1

[30] = system: HCC-827 (Lung Adenocarcinoma); assay: as above
In short: as §1

[31] = system: KG-1 (Acute Myeloid Leukemia); assay: as above
In short: as §1

[32] = system: SNU-61 (Colorectal Carcinoma); assay: as above
In short: as §1

[33] = system: RCC10RGB (Kidney Carcinoma); assay: as above
In short: as §1

[34] = system: PA-TU-8902 (Pancreatic Carcinoma); assay: as above
In short: as §1

A172 (Glioblastoma) [35] = assay: as above
In short: as §1

[36] = system: U-118-MG (Low Grade Glioma); assay: as above
In short: as §1

[37] = system: TYK-nu (Ovarian Carcinoma); assay: as above
In short: as §1

[38] = system: NCI-H1688 (Small Cell Lung Carcinoma); assay: as above
In short: as §1

[39] = system: HCC1143 (Breast Carcinoma); assay: as above
In short: as §1

[40] = system: 647-V (Bladder Carcinoma); assay: as above
In short: as §1
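For Bliss excess, mean over the matrix in this document: after 72 h of two-drug dosing.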

COc1nnc2ccc(N3CCC(c4ccc(OCCN5CCN(C)C(=O)[C@H]5C)cc4)CC3)nn12 [AZD5153] + CN(CC[C@H](CSC1=CC=CC=C1)NC2=C(C=C(C=C2)S(=O)(=O)NC(=O)C3=CC=C(C=C3)N4CCC(CC4)[C@H](C5=CC=CC=C5C6=CC=C(C=C6)Cl)O)S(=O)(=O)C(F)(F)F)CCO [AZD4320] (first compound max 1 µM, 7x7, partner max 1 µM)
combination Emax [1]: 0.521
combination Emax (HuO9 (Osteosarcoma) [2]): 0.938
combination Emax [3]: 0.452
combination Emax (MCF7 (Breast Carcinoma) [4]): 0.699
combination Emax [5]: 1
combination Emax [6]: 0.393
combination Emax [7]: 0.308
combination Emax [8]: 0.936
combination Emax [9]: 0.48
combination Emax [10]: 0.483
combination Emax [11]: 1
combination Emax [12]: 0.392
combination Emax [13]: 0.548
combination Emax [14]: 0.269
combination Emax (A172 (Glioblastoma) [15]): 0.568
combination Emax [16]: 0.417
combination Emax [17]: 0.628
combination Emax [18]: 0.509
combination Emax [19]: 0.454
combination Emax [20]: 0.513
Bliss excess [21]: -0.0296
Bliss excess (HuO9 (Osteosarcoma) [22]): 0.028
Bliss excess [23]: -0.0093
Bliss excess (MCF7 (Breast Carcinoma) [24]): -0.0031
Bliss excess [25]: 0.0276
Bliss excess [26]: 0.0545
Bliss excess [27]: 0.0355
Bliss excess [28]: 0.0252
Bliss excess [29]: 0.0015
Bliss excess [30]: 0.0292
Bliss excess [31]: 0.0754
Bliss excess [32]: -0.005
Bliss excess [33]: -0.0004
Bliss excess [34]: 0.0058
Bliss excess (A172 (Glioblastoma) [35]): 0.037
Bliss excess [36]: 0.0051
Bliss excess [37]: 0.0168
Bliss excess [38]: -0.0021
Bliss excess [39]: 0.0577
Bliss excess [40]: 0.0463

CC(=O)c1c(C)c2cnc(Nc3ccc(N4CCNCC4)cn3)nc2n(C2CCCC2)c1=O [Palbociclib] + CN(CC[C@H](CSC1=CC=CC=C1)NC2=C(C=C(C=C2)S(=O)(=O)NC(=O)C3=CC=C(C=C3)N4CCC(CC4)[C@H](C5=CC=CC=C5C6=CC=C(C=C6)Cl)O)S(=O)(=O)C(F)(F)F)CCO [AZD4320] (first compound max 10 µM, 7x7, partner max 1 µM)
combination Emax [1]: 0.381
combination Emax (HuO9 (Osteosarcoma) [2]): 0.841
combination Emax [3]: 0.277
combination Emax (MCF7 (Breast Carcinoma) [4]): 0.45
combination Emax [5]: 1
combination Emax [6]: 0.445
combination Emax [7]: 0.165
combination Emax [8]: 0.891
combination Emax [9]: 0.292
combination Emax [10]: 0.288
combination Emax [11]: 0.984
combination Emax [12]: 0.136
combination Emax [13]: 0.667
combination Emax [14]: 0.323
combination Emax (A172 (Glioblastoma) [15]): 0.647
combination Emax [16]: 0.466
combination Emax [17]: 0.37
combination Emax [18]: 0.657
combination Emax [19]: 0.332
combination Emax [20]: 0.211
Bliss excess [21]: -0.0496
Bliss excess (HuO9 (Osteosarcoma) [22]): 0.0272
Bliss excess [23]: -0.058
Bliss excess (MCF7 (Breast Carcinoma) [24]): -0.0486
Bliss excess [25]: -0.0087
Bliss excess [26]: -0.0374
Bliss excess [27]: -0.041
Bliss excess [28]: -0.0491
Bliss excess [29]: -0.0826
Bliss excess [30]: -0.0307
Bliss excess [31]: 0.0673
Bliss excess [32]: -0.0753
Bliss excess [33]: -0.0344
Bliss excess [34]: -0.085
Bliss excess (A172 (Glioblastoma) [35]): -0.115
Bliss excess [36]: -0.0302
Bliss excess [37]: -0.0257
Bliss excess [38]: -0.0438
Bliss excess [39]: -0.0178
Bliss excess [40]: -0.0393

C[C@@H](c1ccc2nccn2c1)n1nnc2ncc(-c3cnn(C)c3)nc21 [Savolitinib] + CN(CC[C@H](CSC1=CC=CC=C1)NC2=C(C=C(C=C2)S(=O)(=O)NC(=O)C3=CC=C(C=C3)N4CCC(CC4)[C@H](C5=CC=CC=C5C6=CC=C(C=C6)Cl)O)S(=O)(=O)C(F)(F)F)CCO [AZD4320] (first compound max 1 µM, 7x7, partner max 1 µM)
combination Emax [1]: 0.0904
combination Emax (HuO9 (Osteosarcoma) [2]): 0.745
combination Emax [3]: 0.187
combination Emax (MCF7 (Breast Carcinoma) [4]): 0.162
combination Emax [5]: 1
combination Emax [6]: 0.152
combination Emax [7]: 0.258
combination Emax [8]: 0.888
combination Emax [9]: 0.181
combination Emax [10]: 0.236
combination Emax [11]: 0.873
combination Emax [12]: 0.183
combination Emax [13]: 0.33
combination Emax [14]: 0.26
combination Emax (A172 (Glioblastoma) [15]): 0.112
combination Emax [16]: 0.402
combination Emax [17]: 0.283
combination Emax [18]: 0.538
combination Emax [19]: 0.268
combination Emax [20]: 0.15
Bliss excess [21]: -0.0639
Bliss excess (HuO9 (Osteosarcoma) [22]): -0.0704
Bliss excess [23]: -0.0338
Bliss excess (MCF7 (Breast Carcinoma) [24]): -0.0156
Bliss excess [25]: -0.0256
Bliss excess [26]: -0.0197
Bliss excess [27]: 0.0065
Bliss excess [28]: -0.002
Bliss excess [29]: -0.0216
Bliss excess [30]: -0.0001
Bliss excess [31]: -0.0251
Bliss excess [32]: -0.0357
Bliss excess [33]: -0.048
Bliss excess [34]: -0.0909
Bliss excess (A172 (Glioblastoma) [35]): -0.0551
Bliss excess [36]: -0.0222
Bliss excess [37]: -0.03
Bliss excess [38]: 0.0359
Bliss excess [39]: 0.0021
Bliss excess [40]: -0.0378
